Laboratory results published in DBAASP.
Values after ≈ are worked out from the molar mass of the structure shown.

Tests used:
Assay in all cases: ≥ marks a high value that may be exact or a test limit, other limits are often not marked, values filed in µg/mL are converted to µM
[1] = system: Staphylococcus aureus ATCC 6538
[2] = system: Bacillus subtilis ATCC 6633
[3] = system: Staphylococcus aureus ATCC 2592
[4] = system: Pseudomonas aeruginosa ATCC 9027
[5] = system: Bacillus subtilis 168
[6] = system: Staphylococcus aureus
[7] = system: Pseudomonas aeruginosa
[8] = system: Escherichia coli B
[9] = system: Escherichia coli ATCC 25922
[10] = system: Candida albicans ATCC 2002
[11] = system: Bacillus subtilis
[12] = system: Shigella dysenteriae
[13] = system: Escherichia coli
[14] = system: Staphylococcus epidermidis
[15] = system: Micrococcus luteus
[16] = system: Klebsiella pneumoniae
[17] = system: Proteus mirabilis
[18] = system: Salmonella typhimurium
[19] = system: Enterococcus faecalis
[20] = system: Acinetobacter baumannii

MIC [3] [µM] | MIC [6] [µM] | MIC [7] [µM] | MIC [11] [µM] | MIC [12] [µM] | MIC [13] [µM] | MIC [14] [µM] | MIC [16] [µM] | SMILES | also measured
 | 40 (≈ 81.6 µg/mL) | 22 (≈ 44.9 µg/mL) |  |  |  |  |  | CC[C@H](C)[C@H](NC(=O)[C@H](CO)NC(=O)[C@H](CC(C)C)NC(=O)[C@H](Cc1ccccc1)NC(=O)CN)C(=O)N[C@@H](CC(C)C)C(=O)N[C@@H](CCCCN)C(=O)N[C@@H](CCCCN)C(=O)N[C@H](C(=O)N[C@@H](CC(C)C)C(=O)N1CCC[C@H]1C(=O)N[C@@H](CCCCN)C(=O)N[C@H](C(=O)N[C@@H](CCSC)C(=O)N[C@@H](C)C(=O)N[C@@H](Cc1cnc[nH]1)C(=O)N[C@@H](CCSC)C(=O)N[C@@H](CCCCN)C(N)=O)C(C)C)C(C)C [GFLSILKKVLPKVMAHMK] | MIC [5]: 0.62 µM (≈ 1.26 µg/mL); MIC [8]: 1 µM (≈ 2.04 µg/mL)
5.04 (≈ 12.5 µg/mL) |  |  | 20.2 (≈ 50 µg/mL) |  |  |  |  | CC[C@H](C)[C@H](NC(=O)CNC(=O)[C@H](CO)NC(=O)[C@H](CC(C)C)NC(=O)[C@@H](N)Cc1ccccc1)C(=O)N[C@@H](CC(C)C)C(=O)N[C@@H](CCCCN)C(=O)N[C@@H](CC(C)C)C(=O)N[C@@H](C)C(=O)N[C@@H](Cc1ccccc1)C(=O)N[C@@H](CCCCN)C(=O)N[C@H](C(=O)N1CCC[C@H]1C(=O)N[C@@H](CO)C(=O)N[C@H](C(=O)N[C@@H](CC(C)C)C(=O)N[C@H]1CSSC[C@@H](C(=O)O)NC(=O)[C@H](CC(N)=O)NC(=O)[C@H](CCCCN)NC(=O)[C@H](CC(C)C)NC(=O)[C@H](C(C)C)NC(=O)[C@H](C)NC1=O)C(C)C)[C@@H](C)CC [FLSGILKLAFKIPSVLCAVLKNC] | MIC [9]: 10.1 µM (≈ 25 µg/mL); MIC [10]: 10.1 µM (≈ 25 µg/mL)
 | > 100 | > 100 |  |  |  |  |  | CC[C@H](C)[C@H](NC(=O)[C@H](Cc1cnc[nH]1)NC(=O)[C@H](CCCCN)NC(=O)[C@H](CC(C)C)NC(=O)[C@H](CCCCN)NC(=O)[C@H](CO)NC(=O)[C@H](CCSC)NC(=O)[C@H](Cc1c[nH]c2ccccc12)NC(=O)[C@H](CCCCN)NC(=O)CN)C(=O)N[C@@H](CC(C)C)C(=O)N[C@@H](CCCCN)C(N)=O [GKWMSKLKHILK] | MIC [5]: 3.7 µM (≈ 5.43 µg/mL); MIC [8]: ≥ 45 µM
 | 9.9 (≈ 24.9 µg/mL) | 1.3 (≈ 3.27 µg/mL) |  |  | 1.2 (≈ 3.02 µg/mL) | 1.2 (≈ 3.02 µg/mL) | 0.6 (≈ 1.51 µg/mL) | CC[C@H](C)[C@H](NC(=O)CNC(=O)[C@H](CCCN=C(N)N)NC(=O)[C@H](Cc1ccc(O)cc1)NC(=O)[C@H](CC(C)C)NC(=O)[C@H](CCCCN)NC(=O)CNC(=O)[C@H](Cc1ccccc1)NC(=O)[C@@H](N)Cc1c[nH]c2ccccc12)C(=O)N[C@H](C(=O)N[C@@H](CCCCN)C(=O)N[C@H](C(=O)N[C@H](C(=O)N[C@@H](CCCCN)C(=O)N[C@@H](CCCCN)C(=O)N[C@H](C(=O)N[C@@H](CCCCN)C(=O)NCC(=O)N[C@@H](CC(C)C)C(=O)N[C@@H](CC(C)C)C(=O)N[C@@H](CCCCN)C(=O)NCC(=O)O)C(C)C)C(C)C)C(C)C)[C@@H](C)O [WFGKLYRGITKVVKKVKGLLKG] | MIC [19]: 1.2 µM (≈ 3.02 µg/mL); MIC [20]: 0.6 µM (≈ 1.51 µg/mL)

Second part, the compound before the results:

SMILES | MIC [3] [µM] | MIC [6] [µM] | MIC [7] [µM] | MIC [11] [µM] | MIC [12] [µM] | MIC [13] [µM] | MIC [14] [µM] | MIC [16] [µM] | also measured
CC(C)C[C@H](NC(=O)CNC(=O)[C@@H](NC(=O)[C@@H]1CCCN1C(=O)[C@H](CC(C)C)NC(=O)CNC(=O)[C@H](CC(N)=O)NC(=O)[C@H](CC(N)=O)NC(=O)[C@H](Cc1ccc(O)cc1)NC(=O)[C@@H](NC(=O)[C@H](CCCN=C(N)N)NC(=O)[C@H](CS)NC(=O)[C@H](CCCN=C(N)N)NC(=O)[C@H](Cc1cnc[nH]1)NC(=O)[C@H](CCCCN)NC(=O)[C@@H](N)CCCCN)C(C)C)[C@@H](C)O)C(=O)N[C@@H](Cc1ccc(O)cc1)C(=O)N[C@@H](CCCN=C(N)N)C(=O)N[C@@H](Cc1c[nH]c2ccccc12)C(=O)N[C@@H](CS)C(N)=O [KKHRCRVYNNGLPTGLYRWC] |  |  |  |  |  |  |  |  | MIC [1]: 2.4 µM (≈ 5.91 µg/mL)
CC[C@H](C)[C@H](NC(=O)[C@H](CCCCN)NC(=O)[C@@H]1CCCN1C(=O)[C@H](Cc1ccccc1)NC(=O)[C@@H](NC(=O)[C@H](CO)NC(=O)CNC(=O)[C@H](CC(C)C)NC(=O)[C@H](C)NC(=O)[C@H](CCCCN)NC(=O)[C@H](CC(C)C)NC(=O)[C@H](C)NC(=O)[C@@H](NC(=O)[C@@H]1CCCN1C(=O)[C@H](CC(C)C)NC(=O)[C@@H](N)Cc1ccccc1)[C@@H](C)CC)[C@@H](C)CC)C(=O)N[C@@H](CC(C)C)C(N)=O [FLPIALKALGSIFPKIL] | 6.79 (≈ 12.5 µg/mL) |  |  |  |  |  |  |  | MIC [2]: 27.2 µM (≈ 50 µg/mL)
CC(C)C[C@H](NC(=O)[C@H](CCCCN)NC(=O)[C@H](CCCCN)NC(=O)[C@H](C)NC(=O)[C@H](CC(C)C)NC(=O)[C@H](CCCCN)NC(=O)[C@H](CCCCN)NC(=O)[C@H](C)NC(=O)[C@H](Cc1ccccc1)NC(=O)[C@H](CCCCN)NC(=O)[C@H](CCCCN)NC(=O)[C@H](Cc1ccccc1)NC(=O)[C@H](CC(C)C)NC(=O)[C@H](CCCCN)NC(=O)[C@@H](NC(=O)[C@H](CCCCN)NC(=O)[C@H](CCCCN)NC(=O)[C@H](CCCCN)NC(=O)[C@H](Cc1ccccc1)NC(=O)[C@H](CC(C)C)NC(=O)[C@H](CCCCN)NC(=O)[C@H](Cc1c[nH]c2ccccc12)NC(=O)[C@@H](N)CCCCN)[C@@H](C)O)C(=O)O [KWKLFKKKTKLFKKFAKKLAKKL] |  |  |  |  |  |  |  |  | MIC [4]: > 69.5 µM; MIC [1]: 3.47 µM (≈ 10 µg/mL)
CC[C@H](C)[C@H](NC(=O)[C@@H]1CCCN1C(=O)[C@H](CC(C)C)NC(=O)[C@@H](N)Cc1ccccc1)C(=O)N[C@H](C(=O)NCC(=O)N[C@@H](CCCCN)C(=O)N[C@@H](CC(C)C)C(=O)N[C@@H](CC(C)C)C(=O)N[C@@H](CO)C(=O)NCC(=O)N[C@@H](CC(C)C)C(=O)N[C@@H](CO)C(=O)NCC(=O)N[C@@H](CC(C)C)C(=O)N[C@@H](CC(C)C)C(N)=O)C(C)C [FLPIVGKLLSGLSGLL] | 1.23 (≈ 2 µg/mL) |  |  |  | 0.922 (≈ 1.5 µg/mL) |  |  |  | MIC [9]: 1.84 µM (≈ 3 µg/mL); MIC [10]: 4 µM (≈ 6.5 µg/mL)
CC(C)C[C@H](NC(=O)[C@@H](N)Cc1ccccc1)C(=O)NCC(=O)N[C@@H](C)C(=O)N[C@@H](Cc1c[nH]c2ccccc12)C(=O)N[C@@H](Cc1ccccc1)C(=O)N[C@@H](CCCCN)C(=O)N[C@H](C(=O)N[C@@H](C)C(=O)N[C@@H](CO)C(=O)N[C@@H](CCCCN)C(=O)O)C(C)C [FLGAWFKVASK] |  | > 160 | > 160 | ≥ 160 | ≥ 160 | > 160 | ≥ 160 | > 160 | MIC [15]: ≥ 160 µM; MIC [17]: ≥ 160 µM; MIC [18]: ≥ 160 µM
CC[C@H](C)[C@H](NC(=O)[C@H](CC(N)=O)NC(=O)[C@H](CCCN=C(N)N)NC(=O)CNC(=O)[C@H](CCSC)NC(=O)[C@H](CCCCN)NC(=O)[C@H](CCC(=O)O)NC(=O)[C@@H](NC(=O)[C@H](CCCCN)NC(=O)[C@H](CC(C)C)NC(=O)[C@H](Cc1ccccc1)NC(=O)[C@@H](NC(=O)[C@H](CCCCN)NC(=O)[C@H](CCC(=O)O)NC(=O)[C@H](CCCCN)NC(=O)[C@@H]1CCCN1C(=O)[C@@H](N)CCSC)C(C)C)[C@@H](C)CC)C(=O)N[C@@H](CCCN=C(N)N)C(=O)N[C@@H](CC(N)=O)C(N)=O [MPKEKVFLKIEKMGRNIRN] |  |  |  |  |  |  |  |  | MIC [4]: > 85.8 µM; MIC [1]: > 85.8 µM
CC(C)C[C@H](NC(=O)[C@H](C)NC(=O)CNC(=O)[C@H](CC(C)C)NC(=O)[C@@H](N)Cc1ccccc1)C(=O)N[C@@H](Cc1ccccc1)C(=O)N[C@@H](Cc1c[nH]c2ccccc12)C(=O)N[C@H](C(=O)N[C@@H](C)C(=O)N[C@@H](CO)C(=O)N[C@@H](CCCCN)C(=O)O)C(C)C [FLGALFWVASK] |  | > 161 | > 161 | ≥ 161 | ≥ 161 | > 161 | ≥ 161 | > 161 | MIC [15]: ≥ 161 µM; MIC [17]: ≥ 161 µM; MIC [18]: ≥ 161 µM
CC[C@H](C)[C@@H]1NC(=O)[C@H](CO)NC(=O)[C@H](CCCCN)NC(=O)[C@H]([C@@H](C)O)NC(=O)[C@H](Cc2c[nH]c3ccccc23)NC(=O)[C@@H](NC(=O)CNC(=O)[C@H](CCCCN)NC(=O)[C@H](CC(C)C)NC(=O)[C@H](C)NC(=O)[C@H](C)N)CSSC[C@@H](C(=O)N[C@@H](Cc2ccccc2)C(=O)NCC(=O)N[C@@H](Cc2ccccc2)C(=O)O)NC(=O)[C@@H]2CCCN2C(=O)[C@H](CCCCN)NC(=O)[C@@H]2CCCN2C(=O)[C@@H]2CCCN2C1=O [AALKGCWTKSIPPKPCFGF] | 1.03 (≈ 2.12 µg/mL) |  |  | 1.19 (≈ 2.44 µg/mL) |  |  |  |  | MIC [9]: 1.38 µM (≈ 2.84 µg/mL); MIC [10]: 2.32 µM (≈ 4.76 µg/mL)
CC(C)C[C@H](NC(=O)[C@H](C)NC(=O)CNC(=O)[C@H](CC(C)C)NC(=O)[C@@H](N)Cc1c[nH]c2ccccc12)C(=O)N[C@@H](Cc1ccccc1)C(=O)N[C@@H](CCCCN)C(=O)N[C@H](C(=O)N[C@@H](C)C(=O)N[C@@H](CO)C(=O)N[C@@H](CCCCN)C(=O)O)C(C)C [WLGALFKVASK] |  | 82 (≈ 100 µg/mL) | > 164 | ≥ 82 | ≥ 164 | 164 (≈ 200 µg/mL) | ≥ 164 | > 164 | MIC [15]: ≥ 82 µM; MIC [17]: ≥ 164 µM; MIC [18]: ≥ 164 µM
